# Experimental data as given in US8846125B2, “Enaminocarbonyl compounds and their use” (Instytut Chemii Organicznej, Polska Akademia Nauk, priority 2009, dated 2014).
# How the values were obtained:
# Format in all cases: in vivo, healthy men
# [1] = system: perception of sweet taste (panel members); assay: Qualitative evaluation of the perception of sweet taste by a 5-volunteer panel; parameters: key to Perception of sweet taste: +: perception of sweet taste; ++: very strong perception of sweet taste; −: absence of sweet taste; conditions: 4000 ppm solution in 20% ethanol, 5 panel members; for Perception of sweet taste: 10 ml mouth rinse 20 s
# Procedure: Compounds according to the present invention destined for testing of their taste perception modifying properties were re-crystallized from ethanol or an ethanol-water mixture.
# Qualitative evaluation of the perception of sweet taste; the examined substances were dissolved in a 20% ethanol and water mixture (vol./vol.).
# Three initial solutions were formulated, containing: • the compound of example 1 (3-benzylaminomethylenedihydrofuran-2-one, 4000 ppm solution-400 mg in 100 ml 20% ethanol), • compound of example 2 ((R)-3-(1-phenylethylamino)methylenedihydrofuran-2-one, 4000 ppm solution-400 mg in 100 ml 20% ethanol), • compound of example 6 (2-benzylaminomethylenecyclopentanone, 4000 ppm solution−400 mg in 100 ml 20% ethanol).
# Solutions of lower concentrations were obtained through dilution, to appropriate proportions, of the initial solutions with a 20% mixture of ethanol and distilled water (vol./vol.).
# (§1) Evaluation of the degree of sweetness of the compounds according to the present invention was performed using a 5-volunteer panel—healthy men—henceforth referred to as panel members. All panel members were informed of the need to maintain safety procedures during the evaluation of the compounds according to the present invention, In particular, of the need to avoid swallowing the tested solutions. Each of the panel members received a 10 ml sample of a solution in a small vial and rinsed out their mouth with the entire contents of the vial for 20 seconds and then spit out the tested solution. Next, they carefully rinsed out their mouth with a large volume of distilled water (at least 150 ml) for at least 30 seconds. When the panel member felt that they no longer perceived any taste, they could proceed with the evaluation of the next solution.
# During the first stage, the panel members qualitatively examined the taste of the three initial solutions containing 4000 ppm of a compound according to the present invention. The panel members all agreed that the solutions have an intensive sweet taste.
# An additional qualitative evaluation was made of compounds according to the present invention from examples 4, 7 and 9, and compounds from comparative examples 1-19, in the form of 4000 ppm solutions. […] Solutions of compounds from the comparative examples lack a sweet taste.
# [2] = system: perception of sweetness (panel members); assay: Comparative analysis of the intensity of the sweet taste against a 10% saccharose reference solution; conditions: for Results of sweetness comparisons against the reference solution [+] (sample sweeter) / Results of sweetness comparisons against the reference solution [=] (unable to tell) / Results of sweetness comparisons against the reference solution [−] (sample less sweet): count out of 10 comparative tests, reference 10% saccharose in 20% ethanol
# Excerpt: During the next stage, we performed a comparative analysis of the intensity of the sweet taste. In the study we used the compound of example 1 (3-benzyl-aminomethylenedihydrofuran-2-one). The subject of the study consisted of samples of the initial 4000 ppm solution, and samples of diluted solutions containing 2000, 1000, 800 and 500 ppm of the compound of example 1.
# The reference solution comprised 10% saccharose (wt./wt.) in 20% ethanol, containing 100000 ppm (wt./wt.) saccharose.
# The study operator gave the panel members samples of the compound with the formula 1 marked with randomly generated 3-digit numbers, and also samples of the reference solution of saccharose in order to compare the perception of sweetness to the saccharose reference solution. Each of the 5 panel members received for comparison random samples of the solutions of the compound of example 1, twice, containing 4000 ppm, 2000 ppm, 1000 ppm, 800 ppm and 500 ppm of the compound. Each concentration was thus examined in 10 comparative tests.
# The task for each panel member was to determine whether a given sample is less or more sweet than the reference solution. Each of the panel members completed a form according to the following rules: if a sample was sweeter, then he placed a plus sign [+] beside the symbol of the sample, if it was less sweet, a minus sign [−], and if in doubt, an equal sign [=]. Similar to the qualitative analysis, each of the panel members received a sample of 10 ml of a solution in a small vial, gently rinsed his mouth out with it for 20 seconds and then spat out the tested solution. Next, he carefully rinsed out his mouth with a large volume of distilled water (at least 150 ml) for at least 30 seconds. When the panel member felt that he no longer perceived any taste, he could proceed with the evaluation of the next solution.
# [3] = system: sweet taste of sweet-tasting products (panel members); assay: Inhibition of sweet taste of sweet products, commercial sweeteners and sweet compounds by the compound of example 3; parameters: key to Perceived sweet taste: ++: Strong perception of sweet taste; key to Perception of sweet taste following the addition of the compound of example 3: <<+: Weak or absent perception of sweet taste; conditions: for Perceived sweet taste: without compound of example 3
# Procedure: Evaluation of the degree of sweetness of the compounds according to the present invention was performed using a 5-volunteer panel-healthy men-henceforth referred to as panel members. All panel members were informed of the need to maintain safety procedures during the evaluation of the compounds according to the present invention, In particular, of the need to avoid swallowing the tested solutions. Each of the panel members received a 10 ml sample of a solution in a small vial and rinsed out their mouth with the entire contents of the vial for 20 seconds and then spit out the tested solution. Next, they carefully rinsed out their mouth with a large volume of distilled water (at least 150 ml) for at least 30 seconds. When the panel member felt that they no longer perceived any taste, they could proceed with the evaluation of the next solution. Solutions of sweet products were prepared (saccharose, glucose, bee honey, glycine), by dissolving 100 mg of the product in 5 ml 20% aqueous ethanol. Two solutions are prepared of each product. One of these solutions is supplemented with a compound according to example 3 of the present invention (100 mg). Next, the taste of both solutions is compared for evaluating the qualitative perception of the taste of both solutions, proceeding according to the procedure established above, for the qualitative evaluation of the perception of sweet taste. The study results are compiled in Table 4. Solutions of commercially available sweeteners were prepared (“Sweet Top®” containing aspartame and […]®” containing sorbitol, sodium cyclamate and sodium saccharinate), by dissolving 5 mg of the sweetener in 20 ml of 20% aqueous ethanol. Each sweetener solution was made up twice. One of these solutions was supplemented with a compound according to example 3 of the present invention (5 mg). Next, the taste of both solutions was evaluated proceeding according to the procedure shown above, for the qualitative evaluation of the perception of sweet taste. The study results are compiled in Table 4. Solutions of compounds with a sweet taste according to the present invention were prepared (compounds of examples 1, 2 and 6), dissolving 5 mg of the compound according to the present invention in 20 ml 20% of aqueous ethanol. Two solutions were made of each compound of examples 1, 2 and 6. One of these solutions was supplemented with the compound of example 3 according to the present invention (5 mg). Next, the taste of both solutions was evaluated proceeding according to the above procedure for the qualitative evaluation of the perception of sweet taste. The study results are compiled in Table 4.
# [4] = system: sweet taste of saccharose (panel members); assay: Inhibition of sweet taste of a saccharose solution, qualitative panel evaluation; parameters: key to Inhibition of sweet taste: ++: complete inhibition of sweet taste; −: lack of inhibition of sweet taste; conditions: 100 mg saccharose in 5 ml 20% aqueous ethanol plus 100 mg compound, vs saccharose solution without compound
# Procedure: as §1
# The inhibition of sweet taste of sweet substances or mixtures thereof by inhibitors of sweet taste according to the present invention was examine qualitatively according to the following procedure. Two samples of saccharose, each of 100 mg, are dissolved in 5 ml 20% of aqueous ethanol, and then one solution is supplemented with 100 mg of a compound of an example according to the present invention (compounds from examples 3, 5, and 8). Next, the taste of both solutions is evaluated using the procedure presented above, for the qualitative perception of a sweet taste. […] The study was also performed on compounds from comparative examples 1-19.
# [5] = approximate interpretation of the dilution series, comparison with a 10% saccharose solution in 20% ethanol
# [6] = 5 mg in 20 ml 20% aqueous ethanol plus 5 mg compound of example 3
# [7] = 5 mg in 20 ml 20% aqueous ethanol
# [8] = 100 mg product in 5 ml 20% aqueous ethanol plus 100 mg compound of example 3
# [9] = 100 mg product in 5 ml 20% aqueous ethanol
smiles,measurement,setting,value
"O=C1OCCC1=CNCc1ccccc1 [Example 1, 3-Benzylaminomethylenedihydrofuran-2-one]",Perception of sweet taste,[1],++
same,Results of sweetness comparisons against the reference solution [+] (sample sweeter),[2]; 500 ppm in 20% ethanol,2
same,Results of sweetness comparisons against the reference solution [=] (unable to tell),[2]; 500 ppm in 20% ethanol,2
same,Results of sweetness comparisons against the reference solution [−] (sample less sweet),[2]; 500 ppm in 20% ethanol,6
same,Results of sweetness comparisons against the reference solution [+] (sample sweeter),[2]; 800 ppm in 20% ethanol,2
same,Results of sweetness comparisons against the reference solution [=] (unable to tell),[2]; 800 ppm in 20% ethanol,6
same,Results of sweetness comparisons against the reference solution [−] (sample less sweet),[2]; 800 ppm in 20% ethanol,2
same,Results of sweetness comparisons against the reference solution [+] (sample sweeter),[2]; 1000 ppm in 20% ethanol,8
same,Results of sweetness comparisons against the reference solution [−] (sample less sweet),[2]; 1000 ppm in 20% ethanol,2
same,Results of sweetness comparisons against the reference solution [+] (sample sweeter),[2]; 2000 ppm in 20% ethanol,10
same,Results of sweetness comparisons against the reference solution [+] (sample sweeter),[2]; 4000 ppm in 20% ethanol,10
same,Times sweeter than saccharose,[2]; [5],200-250 times
same,Times sweeter than saccharose,[2]; concluded from the initial 4000 ppm solution vs 10% saccharose reference,at least 50 times
same,Sweetness of the initial solution compared with the reference solution (saccharose),"[2]; initial 4000 ppm solution vs 10% saccharose (100000 ppm) in 20% ethanol, all panel members",much sweeter than the reference solution
same,Perception of sweet taste following the addition of the compound of example 3,[3]; [6],<<+
same,Sweet taste of the solution with an addition of the compound of example 3 (in words),[3]; [6],only a trace perceived sweet taste
same,Perceived sweet taste,[3]; [7],++
"C[C@@H](NC=C1CCOC1=O)c1ccccc1 [Example 2, (R)-3-(1-phenylethyl)aminomethylenedihydrofuran-2-one]",Perception of sweet taste,[1],++
same,Times sweeter than saccharose,[2]; [5],200-250 times
same,Perception of sweet taste following the addition of the compound of example 3,[3]; [6],<<+
same,Sweet taste of the solution with an addition of the compound of example 3 (in words),[3]; [6],does not exhibit a sweet taste
same,Perceived sweet taste,[3]; [7],++
"C[C@H](NC=C1CCOC1=O)c1ccccc1 [Example 3, (S)-3-(1-phenylethyl)aminomethylenedihydrofuran-2-one]",Inhibition of sweet taste,[4],++
same,Taste of the saccharose solution with the compound,[4],practically not sweet at all
"CC[C@@H](NC=C1CCOC1=O)c1ccccc1 [Example 4, (R)-3-(1-phenylpropylo)aminomethylenedihydrofuran-2-one]",Taste of the solution as described by the panel members,[1],intensively sweet taste
same,Perception of sweet taste,[1],++
"CC[C@H](NC=C1CCOC1=O)c1ccccc1 [Example 5, (S)-3-(1-phenylpropylo)aminomethylenedihydrofuran-2-one]",Inhibition of sweet taste,[4],++
same,Taste of the saccharose solution with the compound,[4],practically not sweet at all
"O=C1CCCC1=CNCc1ccccc1 [Example 6, 2-Benzylaminomethylenecyclopentanone]",Perception of sweet taste,[1],++
same,Times sweeter than saccharose,[2]; [5],at least 250 times
same,Perception of sweet taste following the addition of the compound of example 3,[3]; [6],<<+
same,Sweet taste of the solution with an addition of the compound of example 3 (in words),[3]; [6],only a trace perceived sweet taste
same,Perceived sweet taste,[3]; [7],++
"C[C@@H](NC=C1CCCC1=O)c1ccccc1 [Example 7, (R)-2-(1-phenylethyl)aminomethylenecyclopentanone]",Taste of the solution as described by the panel members,[1],intensively sweet taste
same,Perception of sweet taste,[1],++
"C[C@H](NC=C1CCCC1=O)c1ccccc1 [Example 8, (S)-2-(1-phenylethyl)aminomethylenecyclopentanone]",Inhibition of sweet taste,[4],++
same,Taste of the saccharose solution with the compound,[4],practically not sweet at all
"O=C1OCCC1=CNCc1cccnc1 [Example 9, 3-(3-pirydylomethyl)aminomethylenedihydrofuran-2-one]",Bitter side taste,[1],somewhat bitter
same,Taste of the solution as described by the panel members,[1],significantly less sweet than the solution of 3-benzylaminomethylenedihydrofuran-2-one
same,Bitter side taste,[1]; listed as example 9,admixture of a bitter taste
same,Perception of sweet taste,[1],+
"NCC(=O)O [glycine, reference compound]",Perception of sweet taste following the addition of the compound of example 3,[3]; [8],<<+
same,Sweet taste of the solution with an addition of the compound of example 3 (in words),[3]; [8],"do not elicit the perception of a sweet taste, not even a weak one"
same,Perceived sweet taste,[3]; [9],++
"OC[C@H]1O[C@@](CO)(O[C@H]2O[C@H](CO)[C@@H](O)[C@H](O)[C@H]2O)[C@@H](O)[C@@H]1O [saccharose, reference compound]",Perception of sweet taste following the addition of the compound of example 3,[3]; [8],<<+
same,Sweet taste of the solution with an addition of the compound of example 3 (in words),[3]; [8],"do not elicit the perception of a sweet taste, not even a weak one"
same,Perceived sweet taste,[3]; [9],++
